Assay [1] deals with MIA PaCa-2 cells (K-Ras G12C). As to the kind of experiment: Ras-SOS cellular growth inhibition assay (CellTiter-Glo, 3D). As to conditions: Homo sapiens. The assay is classed as cell-based. As for the experimental part: MIA PaCa-2 (ATCC CRL-1420) and NCI-H1792 (ATCC CRL-5895) cell lines comprise a G12C mutation can be used to assess Ras cellular signaling in vitro, e.g., in response to a subject compound of the present disclosure. […] Cell culture medium (comprising, for example, MIA PaCa-2 cells) is prepared with DMEM/Ham's F12 (e.g., with stable Glutamine, 10% FCS, and 2.5% Horse Serum. NCI-H1792 culture medium is prepared with RPMI 1640 (e.g., with stable Glutamine) and 10% FCS. A CellTiter-Glo (CTG) luminescent based assay (Promega) is used to assess growth of the cells, as a measurement of the ability of the compounds herein to inhibit Ras signaling in the cells. The cells (e.g., 800-1200 per well) are seeded in their respective culture medium in standard tissue culture-treated ultra-low attachment surface 96-well format plates (Corning Costar #3474). The day after plating, cells are treated with a dilution series (e.g., a 9 point 3-fold dilution series) of the compounds herein (e.g., approximately 125 μl final volume per well). Cell viability can be monitored (e.g., approximately 5 days later) according to the manufacturer's recommended instructions, where the CellTiter-Glo reagent is added (e.g., approximately 65 μl), vigorously mixed, covered, and placed on a plate shaker (e.g., approximately for 20 min) to ensure sufficient cell lysis prior to assessment of luminescent signal. The IC50 values are determined using the four-parameter fit. The resulting IC50 value is a measurement of the ability of the compounds herein to reduce cell growth of Ras-driven cells as representative tumor cells.
On the technique in general: ATP-based viability assays read luminescence as a measure of living cells.

Assay [2] deals with NCI-H1975 cells (EGFR T790M L858R). The assay is described as follows: EGFR-SOS cellular inhibition assay (CellTiter-Glo, 3D). The class given is cell-based. As to conditions: Homo sapiens.
Another assay has as its target SOS1 (Homo sapiens (Human), UniProt Q07889). The assay is described as follows: Ras-SOS interaction assay (HTRF). The assay is classed as biochemical. A general note: In TR-FRET formats the signal depends on donor and acceptor labels being close together.
[3] abbreviates: MIA PaCa-2, 120 h, MIA PaCa-2, 3D proliferation, about 5 days, read-out: Bio-Cell-Prolif-3D (MiaPaca2 IC50).
Where [4] appears, read: 120 h, NCI-H1975, 3D proliferation, about 5 days, read-out: Bio-Cell-Prolif-3D (H1975 IC50).
Where [5] appears, read: NCI-H1975, EGFR T790M L858R, read-out: IC50 in inhibiting growth of NCI-H1975 cell line.
The mark [6] stands for this setting: K-RasG13D utilized, read-out: IC50 inhibition of SOS.
Setting [7] is: K-RasG13D, read-out: IC50 value against SOS1.
The mark [8] stands for this setting: MIA PaCa-2, MIA PaCa-2, read-out: IC50 in inhibiting MIA PaCa-2 cell growth.

Like-named read-outs stand apart in the source and are kept apart here. Where only a bound is given, the exact number is not on record here.

15 compounds from patent US11648254B2 (Kumquat Biosciences Inc., priority 2021, dated 2023) can be followed below.

SOS1, sequence (Q07889 564-1049): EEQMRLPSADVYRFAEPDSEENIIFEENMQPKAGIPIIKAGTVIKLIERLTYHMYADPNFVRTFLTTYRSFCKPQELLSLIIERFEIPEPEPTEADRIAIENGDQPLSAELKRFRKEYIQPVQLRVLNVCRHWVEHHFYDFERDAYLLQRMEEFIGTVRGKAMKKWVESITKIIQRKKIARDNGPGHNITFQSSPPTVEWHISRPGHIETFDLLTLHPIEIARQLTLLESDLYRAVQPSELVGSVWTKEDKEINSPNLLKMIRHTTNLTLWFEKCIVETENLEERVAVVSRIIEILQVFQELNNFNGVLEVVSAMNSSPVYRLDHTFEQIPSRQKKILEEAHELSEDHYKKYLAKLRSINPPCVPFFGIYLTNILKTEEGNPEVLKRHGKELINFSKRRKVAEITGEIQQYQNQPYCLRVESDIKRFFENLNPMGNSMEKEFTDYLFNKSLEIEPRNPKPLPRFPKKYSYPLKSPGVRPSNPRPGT

As usually defined, the IC50 is the concentration that inhibits the measured activity by half. Turning to `COc1nc2nc(C)nc(N[C@H](C)c3cccc(C(F)F)c3F)c2cc1C1(C#N)CCOCC1` [Compound 320, (R)-4-(4-((1-(3-(difluoromethyl)-2-fluorophenyl)ethyl)amino)-7-methoxy-2-methylpyrido[2,3-d]pyrimidin-6-yl)tetrahydro-2H-pyran-4-carbonitrile], the IC50 was at most 1000 nM in assay [1] (setting [3]); at most 1000 nM in assay [2] (setting [4]); below 500 nM in assay [2] (setting [5]); below 100 nM on SOS1 (setting [6]); below 50 nM on SOS1 (setting [7]).
For `Cc1nc(N[C@H](C)c2cccc(C(F)(F)C3CCN(C(C)C)CC3)c2F)c2cc(C3CCN(C(C)C)CC3)c(Cl)nc2n1` [Compound 222, (R)-7-chloro-N-(1-(3-(difluoro(1-isopropylpiperidin-4-yl)methyl)-2-fluorophenyl)ethyl)-6-(1-isopropylpiperidin-4-yl)-2-methylpyrido[2,3-d]pyrimidin-4-amine], the IC50 in assay [1] (setting [3]) was at most 1000 nM; in assay [1] (setting [8]) it was below 500 nM; in assay [2] (setting [4]) it was at most 1000 nM; in assay [2] (setting [5]) it was below 500 nM; on SOS1 (setting [6]) it was below 100 nM; at SOS1 (setting [7]), below 50 nM.
On to `C[C@@H](Nc1ncnc2nc(OC3COC3)c(N3CCS(=O)(=O)CC3)cc12)c1cccc(C(F)F)c1F` [Compound 231, (R)-4-(4-((1-(3-(difluoromethyl)-2-fluorophenyl)ethyl)amino)-7-(oxetan-3-yloxy)pyrido[2,3-d]pyrimidin-6-yl)thiomorpholine 1,1-dioxide], for which the IC50 in assay [1] (setting [3]) is at most 1000 nM; in assay [2] (setting [4]) it was 1000 to 10000 nM; at SOS1 (setting [6]) it was below 100 nM; on SOS1 (setting [7]) it was below 50 nM.
On to `COc1nc2nc(C)nc(N[C@H](C)c3cccc(C(F)(F)C(C)(C)O)c3)c2cc1C1CCS(=O)(=O)CC1` [Compound 173, (R)-4-(4-((1-(3-(1,1-difluoro-2-hydroxy-2-methylpropyl)phenyl)ethyl)amino)-7-methoxy-2-methylpyrido[2,3-d]pyrimidin-6-yl)tetrahydro-2H-thiopyran 1,1-dioxide], for which the 50% inhibitory concentration (IC50) in assay [1] (setting [3]) is 1000 to 10000 nM; in assay [2] (setting [4]) it was at most 1000 nM; in assay [2] (setting [5]), below 500 nM; at SOS1 (setting [6]), below 100 nM; at SOS1 (setting [7]) it was below 50 nM.
With `COc1nc2nc(C)nc(N[C@H](C)c3cccc(C(F)F)c3F)c2cc1C1CCS(=N)(=O)CC1` (stereo partly drawn) [Compound 153, 4-(4-(((R)-1-(3-(difluoromethyl)-2-fluorophenyl)ethyl)amino)-7-methoxy-2-methylpyrido[2,3-d]pyrimidin-6-yl)-1-iminohexahydro-1λ6-thiopyran 1-oxide], the IC50 in assay [1] (setting [3]) was at most 1000 nM; in assay [1] (setting [8]), below 500 nM; in assay [2] (setting [4]), at most 1000 nM; in assay [2] (setting [5]), below 500 nM; at SOS1 (setting [6]) it was below 100 nM; on SOS1 (setting [7]), below 50 nM.
For `COc1nc2nc(C)nc(N[C@H](C)c3cccc(C(F)(F)CO)c3)c2cc1C1(C#N)CC1` [Compound 179, (R)-1-(4-((1-(3-(1,1-difluoro-2-hydroxyethyl)phenyl)ethyl)amino)-7-methoxy-2-methylpyrido[2,3-d]pyrimidin-6-yl)cyclopropane-1-carbonitrile], the IC50 in assay [1] (setting [3]) was at most 1000 nM; in assay [1] (setting [8]), below 500 nM; in assay [2] (setting [4]), at most 1000 nM; in assay [2] (setting [5]), below 500 nM; at SOS1 (setting [6]), below 100 nM; on SOS1 (setting [7]), below 50 nM.
Take `COc1nc2nc(C)nc(N[C@H](C)c3cccc(C(F)(F)CCC4CNC4)c3F)c2cc1C1(C#N)CC1` [Compound 172, (R)-1-(4-((1-(3-(3-(azetidin-3-yl)-1,1-difluoropropyl)-2-fluorophenyl)ethyl)amino)-7-methoxy-2-methylpyrido[2,3-d]pyrimidin-6-yl)cyclopropane-1-carbonitrile]: the 50% inhibitory concentration (IC50) in assay [1] (setting [3]) is 1000 to 10000 nM; in assay [2] (setting [4]) it was at most 1000 nM; in assay [2] (setting [5]) it was below 500 nM; on SOS1 (setting [6]), below 100 nM; on SOS1 (setting [7]) it was below 50 nM.
For the compound `Cc1nc(N[C@H](C)c2cccc(C(F)(F)F)c2F)c2cc(N3CCS(=O)(=O)CC3)c(Cl)nc2n1` [Compound 257, (R)-4-(7-chloro-4-((1-(2-fluoro-3-(trtfluoromethyl)phenyl)ethyl)amino)-2-methylpyrido[2,3-d]pyrimidin-6-yl)thiomorpholine 1,1-dioxide], the IC50 in assay [1] (setting [3]) is at most 1000 nM; in assay [1] (setting [8]), below 500 nM; in assay [2] (setting [4]), at most 1000 nM; in assay [2] (setting [5]), below 500 nM; on SOS1 (setting [6]) it was below 100 nM; on SOS1 (setting [7]), below 50 nM.
Regarding `COc1nc2nc(C)nc(N[C@H](C)c3cccc(C(F)(F)C4CCN(C(C)C)CC4)c3F)c2cc1N1CCN(C(C)C)CC1` [Compound 163, (R)-N-(1-(3-(difluoro(1-isopropylpiperidin-4-yl)methyl)-2-fluorophenyl)ethyl)-6-(4-isopropylpiperazin-1-yl)-7-methoxy-2-methylpyrido[2,3-d]pyrimidin-4-amine], the IC50 in assay [1] (setting [3]) was at most 1000 nM; in assay [1] (setting [8]), below 500 nM; in assay [2] (setting [4]) it was at most 1000 nM; in assay [2] (setting [5]), below 500 nM; on SOS1 (setting [6]), below 100 nM; at SOS1 (setting [7]) it was below 50 nM.
For the compound `COc1nc2ncnc(N[C@H](C)c3cccc(C(F)(F)F)c3F)c2cc1N1CCN(C)CC1` [Compound 197, (R)-N-(1-(2-fluoro-3-(trifluoromethyl)phenyl)ethyl)-7-methoxy-6-(4-methylpiperazin-1-yl)pyrido[2,3-d] pyrimidin-4-amine], the half-maximal inhibitory concentration (IC50) in assay [1] (setting [3]) is at most 1000 nM; in assay [1] (setting [8]), below 500 nM; in assay [2] (setting [4]), at most 1000 nM; in assay [2] (setting [5]), below 500 nM; on SOS1 (setting [6]) it was below 100 nM; at SOS1 (setting [7]) it was below 50 nM.
In the case of `Cc1nc(N[C@H](C)c2cccc(C(F)(F)F)c2F)c2cc(C3CCN(C(C)C)CC3)c(Cl)nc2n1` [Compound 391, (R)-7-chloro-N-(1-(2-fluoro-3-(trifluoromethyl)phenyl)ethyl)-6-(1-isopropylpiperidin-4-yl)-2-methylpyrido[2,3-d] pyrimidin-4-amine], the IC50 in assay [1] (setting [3]) is at most 1000 nM; in assay [1] (setting [8]), below 500 nM; in assay [2] (setting [4]) it was at most 1000 nM; in assay [2] (setting [5]) it was below 500 nM; at SOS1 (setting [6]) it was below 100 nM; on SOS1 (setting [7]), below 50 nM.
With `Cc1nc(N[C@H](C)c2cccc(C(F)(F)F)c2C)c2cc(C3CCS(=O)(=O)CC3)c(OC3COC3)nc2n1` [Compound 249, (R)-4-(2-methyl-4-((1-(2-methyl-3-(trifluoromethyl)phenyl)ethyl)amino)-7-(oxetan-3-yloxy)pyrido[2,3-d]pyrimidin-6-yl)tetrahydro-2H-thiopyran 1,1-dioxide], the IC50 in assay [1] (setting [3]) is 1000 to 10000 nM; in assay [2] (setting [4]) it was at most 1000 nM; in assay [2] (setting [5]), below 500 nM; at SOS1 (setting [6]) it was below 100 nM; on SOS1 (setting [7]) it was below 50 nM.
On the same counts, the results for `COCCOc1nc2nc(C)nc(N[C@H](C)c3cccc(C(F)F)c3F)c2cc1N1CCN(C)CC1` [Compound 343, (R)-N-(1-(3-(difluoromethyl)-2-fluorophenyl)ethyl)-7-(2-methoxyethoxy)-2-methyl-6-(4-methylpiperazin-1-yl)pyrido[2,3-d] pyrimidin-4-amine] are at most 1000 nM, at most 1000 nM, below 500 nM, below 100 nM and below 50 nM.
As to `COc1nc2nc(C)nc(N[C@H](C)c3cccc(C(F)(F)C4(O)CC4)c3F)c2cc1N1CCN(C(C)C)CC1` [Compound 209, (R)-1-(difluoro(2-fluoro-3-(1-((6-(4-isopropylpiperazin-1-yl)-7-methoxy-2-methylpyrido[2,3-d]pyrimidin-4-yl)amino)ethyl)phenyl)methyl)cyclopropan-1-ol], the IC50 in assay [1] (setting [3]) is at most 1000 nM; in assay [1] (setting [8]), below 500 nM; in assay [2] (setting [4]), at most 1000 nM; in assay [2] (setting [5]), below 500 nM; on SOS1 (setting [6]) it was below 100 nM; on SOS1 (setting [7]), below 50 nM.
With `COc1nc2ncnc(N[C@H](C)c3cccc(C(F)F)c3F)c2cc1C1CCN(C)CC1` [Compound 412, (R)-N-(1-(3-(difluoromethyl)-2-fluorophenyl)ethyl)-7-methoxy-6-(1-methylpiperidin-4-yl)pyrido[2,3-d] pyrimidin-4-amine], the IC50 was at most 1000 nM in assay [1] (setting [3]); below 500 nM in assay [1] (setting [8]); at most 1000 nM in assay [2] (setting [4]); below 500 nM in assay [2] (setting [5]); below 100 nM on SOS1 (setting [6]); below 50 nM on SOS1 (setting [7]).
